From US20230391841A1, “MACROCYCLIC PEPTIDES” (Herantis Pharma OYJ, priority 2019, published 2023)
Bridge positions count the residues as written; N and C are the ends. Peptide text beside a SMILES is read from it.

Legend:
[1] = system: dopaminergic TH-positive neurons injured with MPP+; assay: Neuroprotective effect on dopaminergic TH-positive neurons injured with MPP+ (primary mesencephalic culture); type: cell-based, rat; settings: MPP+ injured TH-positive neurons
Protocol: Neuroprotective effects of compounds 1-26 (SEQ ID NO: 1-26) were tested in an in vitro model in which primary cultures of rat embryonic mesencephalic neurons were stressed with MPP+ , the active metabolite of neurotoxin 1-methyl-4-phenyl-1,2,3,6-tetrahydropyridine (MPTP). MPP+ kills dopaminergic (TH-positive) neurons via a variety of toxic mechanisms, including mitochondrial dysfunction, generation of peroxynitrite, oxidative stress, ER stress and induction of apoptosis.
Culture of mesencephalic neurons. Rat dopaminergic neurons were cultured as described by Visanji et al., 2008. Briefly, the midbrains obtained from 15-day-old rat embryos (Janvier, France) were dissected, and the ventral portion of the mesencephalic flexure, a region of the developing brain rich in dopaminergic neurons, was used for the cell preparations. The midbrain cells were dissociated by trypsinization for 20 min at 37° C. (solution at a final concentration of 0.05% trypsin and 0.02% EDTA). The reaction was stopped by adding Dulbecco's modified Eagle's medium (DMEM) containing DNAase I grade II (0.5 mg/mL) and 10% of fetal calf serum (FCS). Cells were then mechanically dissociated by 3 passages through a 10 ml pipette. Cells were then centrifuged at 180×g for 10 min at +4° C. on a layer of BSA (3.5%) in L15 medium. The cell pellets were re-suspended in a defined culture serum-free medium consisting of Neurobasal (Invitrogen) supplemented with B27 (2%), L-glutamine (2 mM) and 2% of PS solution and 1Ong/ml of Brain-derived neurotrophic factor (BDNF) and 1 ng/mL of Glial-Derived Neurotrophic Factor (GDNF). Viable cells were counted in a Neubauer cytometer using the trypan blue exclusion test. The cells were seeded at a density of 40 000 cells/well in 96 well-plates (pre-coated with poly-L-lysine) and maintained in a humidified incubator at 37° C. in 5% CO2/95% air atmosphere. Half of the medium was changed every 2 days with fresh medium. On 96-wells plates, only 60 wells are used. To avoid any edge effect, the first and last lines and columns were not used for culture and were filled with sterile water.
CDNF as well as linear and macrocyclic compounds […] (SEQ ID NOs: 1-26) were tested. On day 6 of culture, the compounds were dissolved in culture medium and then pre-is incubated with mesencephalic neurons for 4 hours before the MPP+ application. Four hours after the preincubation of the compounds, MPP+ was added to a final concentration of 4 pM, diluted in control medium still in presence of compounds for 48 h.
48 h after intoxication, the cells were fixed by a solution of 4% paraformaldehyde in PBS, pH 7.3 for 20 min at room temperature. The cells were washed twice in PBS, and then permeabilized and non-specific sites were blocked with a solution of PBS containing 0.1% of saponin and 1% FCS for 15 min at room temperature. Next, the cells were incubated with (a) a monoclonal antibody anti-Tyrosine Hydroxylase (TH) produced in mouse at dilution of 1:10000 and with (b) a polyclonal antibody anti-alpha-synuclein (α-syn) antibody produced in rabbit at dilution of 1:400 in PBS containing 1% FCS, 0.1% saponin, for 2 h at room temperature.
48 h after intoxication, the cell culture supernatant was removed, and the cells fixed by a solution of 4% paraformaldehyde in PBS, pH 7.3 for 20 min at room temperature. The cells were washed twice in PBS, and then permeabilized and non-specific sites were blocked with a solution of PBS containing 0.1% of saponin and 1% FCS for 15 min at room temperature. Then, the cells were incubated with a) a monoclonal Anti-Tyrosine Hydroxylase (TH) antibody produced in mouse at dilution of 1:10000 in PBS containing 1% FCS, 0.1% saponin, for 2 hours at room temperature, and b) a polyclonal anti-postsynaptic density protein-95 (PSD-95) antibody produced in rabbit at dilution of 1:200 in PBS containing 1% FCS, 0.1% saponin, for 2 h at room temperature. This antibody stains specifically synapses. […]

rat hepatocytes = assay: In vitro metabolic stability in rat hepatocytes; type: in vitro ADME; settings: 1 μM, 37° C., up to 60 min
Protocol: The linear or macrocyclic compounds 1-14 and 23-26 (SEQ ID NOs: […]) were incubated in concentration 1 μM with pooled cryopreserved rat hepatocytes (Sprague-Dawley, male; 400 pl, 1.0 million viable cells/ml for compounds 1-8, 11-12 and 23-26 or 100 μl, 0.1 million viable cells/ml for compounds 9-10 and 13-14) for different time points (0, 10, 20, 40 or 60 min) at 37° C. The cell density and viability were determined by trypan blue exclusion method. The incubation was terminated by acetonitrile. The collected samples were centrifuged for 20 min at 2272×g and analyzed. The samples were analyzed is by UHPLC/PDA with high resolution mass spectrometry (QE-Orbitrap-MS on DDI mode) (compounds 1-8, 11-12 and 23-26) or HHPLC-ToF mass spectrometry (for compounds 9-and 13-14) to monitor disappearance of the compound. Verapramil 1 μM was used as a disappearance rate control. The analytical method was optimized by using the parent compounds for optimum chromatographic properties (peak shape and retention) and mass spectrometric ionization. The Ion chromatograms were extracted from the total ion chromatograms using calculated monoisotopic accurate masses with 5 mDa window. Disappearance was based on LC/MS peak areas, marking 0 min as 100%. The first-order rate constants k (min-1) of the metabolism were obtained from the slope of time versus logarithm (% of remaining compound) plot using Excel software. The in vitro half-life (t1/2) of study compound is defined as: t1/2In2/k. Calculated half-life is based on compound disappearance in rat liver hepatocytes.

Structure (SMILES) | potency of macrocyclic peptide versus its linear counterpart [1] | stability in rat hepatocytes as compared to linear counterpart (rat hepatocytes)
C[C@@H]1NC(=O)[C@@H]2CSSC[C@H](NC(=O)[C@H](CCC(=O)O)NC(=O)[C@H](CCC(=O)O)NC(=O)CNC(=O)[C@H](Cc3c[nH]c4ccccc34)NC(=O)[C@H]([C@@H](C)O)NC(=O)[C@H](CCCCN)NC(=O)[C@H](CCC(=O)O)NC1=O)C(=O)N[C@@H](CCCNC(=N)N)C(=O)N[C@@H](C)C(=O)N2 [Compound 12, WGEECRACAEKT] (cyclo(ACAEKTWGEECR); disulfide 2-11) | comparable | significantly improved stability
CC[C@H](C)[C@@H]1NC(=O)[C@H](CCC(N)=O)NC(=O)[C@H](CCCCN)NC(=O)[C@H](CC(C)C)NC(=O)[C@H](CCC(=O)O)NC(=O)[C@H](C)NC(=O)[C@H](C(C)C)NC(=O)[C@H](CCCNC(=N)N)NC(=O)[C@H](CCSC)NC(=O)[C@H](CCCCN)NC(=O)[C@H](CCCNC(=N)N)NC(=O)[C@H](CC(C)C)NC(=O)[C@H](CC(=O)O)NC(=O)[C@H](C(C)C)NC(=O)[C@H](CCC(=O)O)NC(=O)[C@H](C)NC(=O)[C@@H]2CSSC[C@H](NC(=O)[C@H](CCC(=O)O)NC(=O)[C@H](CCC(=O)O)NC(=O)CNC(=O)[C@H](Cc3c[nH]c4ccccc34)NC(=O)[C@H](CO)NC(=O)[C@H](Cc3c[nH]cn3)NC(=O)[C@H](CC(C)C)NC1=O)C(=O)N[C@@H](CCCNC(=N)N)C(=O)N[C@@H](C)C(=O)N2 [Compound 2] (cyclo(ACAEVDLRKMRVAELKQILHSWGEECR); disulfide 2-26) | comparable | significantly improved stability
CC[C@H](C)[C@@H]1NC(=O)[C@H](CCCCN)NC(=O)[C@H](CCCCN)NC(=O)[C@H](CC(C)C)NC(=O)[C@H](CCC(=O)O)NC(=O)[C@H](CCCCN)NC(=O)[C@H](C(C)C)NC(=O)[C@H](CCCNC(=N)N)NC(=O)[C@H](CC(C)C)NC(=O)[C@H](CCCCN)NC(=O)[C@H](CCC(=O)O)NC(=O)[C@H](C)NC(=O)[C@@H]2CSSC[C@H](NC(=O)[C@H]([C@@H](C)O)NC(=O)[C@H](CCC(=O)O)NC(=O)CNC(=O)[C@H](Cc3c[nH]c4ccccc34)NC(=O)[C@H](CC(=O)O)NC(=O)[C@H](CC(=O)O)NC(=O)[C@H](CC(C)C)NC1=O)C(=O)N[C@@H](CCCCN)C(=O)NCC(=O)N2 [Compound 8] (cyclo(AEKLRVKELKKILDDWGETCKGC); disulfide 20-23) | comparable | significantly improved stability
C[C@@H]1NC(=O)[C@@H]2CSSC[C@H](NC(=O)[C@H]([C@@H](C)O)NC(=O)[C@H](CCC(=O)O)NC(=O)CNC(=O)[C@H](Cc3c[nH]c4ccccc34)NC(=O)[C@H](CO)NC(=O)[C@H](CCCCN)NC(=O)[C@H](CCC(=O)O)NC1=O)C(=O)N[C@@H](CCCCN)C(=O)NCC(=O)N2 [Compound 14, WGETCKGCAEKS] (cyclo(AEKSWGETCKGC); disulfide 9-12) | comparable | significantly improved stability
C[C@@H]1NC(=O)[C@@H]2CSSC[C@H](NC(=O)[C@H]([C@@H](C)O)NC(=O)[C@H](CCC(=O)O)NC(=O)CNC(=O)[C@H](Cc3c[nH]c4ccccc34)NC(=O)[C@H](CO)NC(=O)[C@H](CCCCN)NC(=O)[C@H](CCC(=O)O)NC1=O)C(=O)N[C@@H](CCCCN)C(=O)NCC(=O)NCC(=O)N2 [Compound 26, WGETCKGGCAEKS] (cyclo(AEKSWGETCKGGC); disulfide 9-13) | comparable | significantly improved stability
CC[C@H](C)[C@@H]1NC(=O)[C@H](CO)NC(=O)[C@H](CCCCN)NC(=O)[C@H](CCC(=O)O)NC(=O)[C@H](C)NC(=O)[C@@H]2CSSC[C@H](NC(=O)[C@H]([C@@H](C)O)NC(=O)[C@H](CCC(=O)O)NC(=O)CNC(=O)[C@H](Cc3c[nH]c4ccccc34)NC(=O)[C@H](CC(=O)O)NC(=O)[C@H](CC(=O)O)NC(=O)[C@H](CC(C)C)NC1=O)C(=O)N[C@@H](CCCCN)C(=O)NCC(=O)N2 [Compound 10, KSILDDWGETCKGCAE] (cyclo(AEKSILDDWGETCKGC); disulfide 13-16) | comparable | significantly improved stability
C[C@@H]1NC(=O)CNC(=O)[C@H](CCCNC(=N)N)NC(=O)[C@@H]2CSSC[C@H](NC1=O)C(=O)N[C@@H](C)C(=O)N[C@@H](CCC(=O)O)C(=O)N[C@@H](CCCCN)C(=O)N[C@@H]([C@@H](C)O)C(=O)N[C@@H](Cc1c[nH]c3ccccc13)C(=O)NCC(=O)N[C@@H](CCC(=O)O)C(=O)N[C@@H](CCC(=O)O)C(=O)N2 [Compound 24, WGEECRGACAEKT] (cyclo(ACAEKTWGEECRG); disulfide 2-11) | comparable | significantly improved stability
CC[C@H](C)[C@@H]1NC(=O)[C@H](CCC(N)=O)NC(=O)[C@H](CCCCN)NC(=O)[C@H](CC(C)C)NC(=O)[C@H](CCC(=O)O)NC(=O)[C@H](C)NC(=O)[C@H](C(C)C)NC(=O)[C@H](CCCNC(=N)N)NC(=O)[C@H](CCSC)NC(=O)[C@H](CCCCN)NC(=O)[C@H](CCC(=O)O)NC(=O)[C@H](C)NC(=O)[C@@H]2CSSC[C@H](NC(=O)[C@H](CCC(=O)O)NC(=O)[C@H](CCC(=O)O)NC(=O)CNC(=O)[C@H](Cc3c[nH]c4ccccc34)NC(=O)[C@H](CO)NC(=O)[C@H](Cc3c[nH]cn3)NC(=O)[C@H](CC(C)C)NC1=O)C(=O)N[C@@H](CCCNC(=N)N)C(=O)N[C@@H](C)C(=O)N2 [Compound 6] (cyclo(ACAEKMRVAELKQILHSWGEECR); disulfide 2-22) | comparable | significantly improved stability
